In paper PMC9640981, “Plant vernalization proteins contain unusual PHD superdomains without histone H3 binding activity” (The Journal of Biological Chemistry, 2022):

Key:
[1] = test system: ^15N-labeled Pd VIN3_123-326; experiment: NMR (BEST-TROSY) interaction of negatively charged polymers with Pd VIN3 PHD superdomain; assay type: binding, Phoenix dactylifera
Procedure: For NMR spectroscopy, A. thaliana VIN3_150-208 and P. dactilyfera VIN3_123-326 were expressed in M9 minimal medium supplemented with 0.4% glucose, antibiotics, trace elements, 25 ml overnight culture, and 2 g of ^15N-H4Cl per liter of expression culture. Cultures were grown and processed essentially as described before. NMR samples containing 50 μM ^15N-labeled VIN3_150-208 or VIN3_123-326 were prepared in aqueous buffer (25 mM Tris pH 8, 150 mM NaCl, and 1 mM DTT). The 50 μM ^15N-labeled VIN3_150-208 or VIN3_123-326 was incubated with 0.5 mM histone H3 peptides resuspended in 25 mM Tris pH 8, 150 mM NaCl, and 1 mM DTT for >30 min before measurement. Spectra were recorded on a Bruker Avance-III spectrometer operating at 600 MHz ^1H frequency and equipped with a 5 mm inverse detection cryogenic probe. BEST-TROSY shift correlation experiments ([45]) were acquired with 256 × 1024 points in t1 and t2, respectively. Spectra were processed in TopSpin version 3.2 (Bruker), with linear prediction in t1, giving a digital resolution of 2.2 and 8.2 Hz/point in the processed data.
Generation of nucleic acid probes for NMR
FLC DNA was used as a template for the design of a dsDNA 60-mer probe, generated by annealing the sequence (5′ […] 3′) and its complementary oligonucleotide for 2 min at 95 °C. […]

[2] = test system: Pd VIN3_123-326; experiment: ITC binding to Pd VIN3 PHD superdomain; set-up: species or system Phoenix dactylifera; settings: 25 °C, Pd VIN3_123-326 with 60-mer DNA
Procedure: VIN3_123-326 from P. dactilyfera was amplified by PCR from synthetic codon optimized genes (gBlocks, Integrated DNA Technologies) and subcloned into pEC-LIC-His-3C (kindly provided by Jurg Muller) containing a hexahistidine tag and a 3C protease cleavage site at the N terminus. VIN3_123-326 was expressed and purified as described previously for VIN3_150-208. In this case, after 3C cleavage overnight, the sample was loaded on a HiLoad 26/600 Superdex 200 pg column (GE Healthcare) in 25 mM Tris pH 8, 150 mM NaCl, and 1 mM DTT.
ITC was carried out at 25 °C with an iTC 200 Microcalorimeter (GE Healthcare) in 25 mM Tris pH 8, 150 mM NaCl, and 1 mM DTT. Titrations consisted of 19 consecutive 2 μl injections of 0.25 to 1 mM peptide solution (following a preinjection of 0.5 μl) into 50 μM protein (VIN3PHD, VIN3_123-326, VIN3_116-307, OBE1_193-372, or pVP13 VIN3_130-299) at time intervals of 120 s. ITC data were analyzed using MicroCal PEAQ-IT Analysis Software (Malvern Sciences).

Substance	perturbation of BEST-TROSY spectrum, heparin (in words) ([1]; 50 μM ^15N-labeled VIN3_123-326, 4 μM heparin)	affinity / binding of nucleic acid (in words) ([2]; ITC titrations, pH 8)	Kd ([2]; ITC, 25 mM Tris pH 8, 150 mM NaCl, 1 mM DTT, representative profile)	perturbation of BEST-TROSY spectrum (in words) ([1]; 50 μM ^15N-labeled VIN3_123-326, 4 μM 60-mer dsDNA or 63-mer RNA (Fig. 6A, B), ssDNA comparison E. F.-E., unpublished)
heparin	same set of perturbations	–	–	–
60-mer ssDNA: FLC 60-mer predicted to lack secondary structure, 5′ GAAGAAAAAGTAGATAGGCACAAAAAATAGAAAGAAATAAAGCGAGAAAAGGAAAAAAAA 3′ (DNA, backbone and methylation of C not given here)	–	weak binding in the low millimolar range	~5 mM	less effective in eliciting spectral changes than dsDNA
